Laboratory results: ChEMBL document CHEMBL1221410, “Antioxidant flavone glycosides from the leaves of Fargesia robusta” (J Nat Prod, 2010)

Key:
[1] = Antioxidant activity against AAPH-induced lipid peroxidation assessed as trolox equivalent of peroxy radical scavenging activity after 10 mins by ORAC assay; format: functional
[2] = Antioxidant activity assessed as trolox equivalent of ABTS radical scavenging activity after 12 to 16 hrs by spectrophotometry; format: functional

SMILES	Activity [1]	Activity [2]
COc1cc(-c2cc(=O)c3c(O[C@@H]4O[C@H](CO)[C@@H](O)[C@H](O)[C@H]4O)cc(O)cc3o2)cc(OC)c1O	18.2	0.063
O=c1c(O)c(-c2ccc(O)c(O)c2)oc2cc(O)cc(O)c12	8.7	3.99
C[C@H]1O[C@@H](c2c(O)cc3oc(-c4ccc(O[C@@H]5O[C@H](CO)[C@@H](O)[C@H](O)[C@H]5O)c(O)c4)cc(=O)c3c2O)C[C@H](O)[C@H]1O	8.3	0.075
C[C@H]1O[C@@H](c2c(O[C@@H]3O[C@H](CO)[C@@H](O)[C@H](O)[C@H]3O)cc3oc(-c4ccc(O)c(O)c4)cc(=O)c3c2O)C[C@H](O)[C@H]1O	26.8	0.332
O=c1cc(-c2ccc(O)c(O)c2)oc2cc(O)c([C@@H]3O[C@H](CO)[C@@H](O)[C@H](O)[C@H]3O)c(O)c12	66.5	1.56
C[C@@H]1O[C@@H](O[C@@H]2C(=O)[C@H](O)[C@@H](C)O[C@H]2c2c(O)cc3oc(-c4ccc(O)c(O)c4)cc(=O)c3c2O)[C@H](O)[C@H](O)[C@H]1O	5.7	0.646
